The text below walks through data of patent US7605272B2, “IGF-1R inhibitor” (Kyowa Hakko Kirin Co., Ltd., priority 2005, dated 2009).

The target in one assay is T1, IGF-1R (Homo sapiens, UniProt P08069).
T1 construct: purchased Upstate Co. 14-465
The experiment in a line: IGF-1R inhibitory activity (kinase reaction, time-resolved fluoroimmunoassay). It is filed as biochemical. Conditions: test compound 10 μmol/L. The essentials: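 Compounds were tested at a single 10 μmol/L concentration. Each was incubated with recombinant IGF-1R (200 μg/L), 10 mmol/L ATP, MgCl2/MnCl2 and Na3VO4 (pH 7.5) on immobilized poly(Glu-Tyr) peptide for 30 min at 24° C. Eu-anti-phosphotyrosine time-resolved fluorescence (340/615 nm) gave relative activity against no-compound and no-enzyme wells, reported as % inhibition.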

A further assay concerns NCI-H929. Kind of assay: Cytostatic activity on human multiple myeloma cell line NCI-H929 (WST-1). The format is cell-based. The settings on record: for inhibition at 10 µM: 10 μmol/L, read-out: cytostatic rate (%) H929 (10 μmol/L). As to the method:
(§1) The cytostatic rates of a test compound on human multiple myeloma cell lines NCI-H929 and KMS-11, were determined in the following manner.
(§2) For culturing NCI-H929, Roswell Park Memorial Institute's Medium (RPMI) 1640 (Gibco, Catalog No. 11875-093) containing 15% fetal bovine serum (Gibco, Catalog No. 10099-141), 1 mmol/L sodium pyruvate (Gibco, Catalog No. 11360-070), 10 mmol/L HEPES (Gibco, Catalog No. 15630-80), 4.5 g/L glucose (Sigma, Catalog No. G8769), 0.05 mmol/L 2-mercaptethanol (Nacalai Tesque, Catalog No. 21418-42) and penicillin/streptomycin (1:1) (Gibco, Catalog No. 15140-122) was used. For culturing KMS-11 cell, RPMI 1640 medium containing 10% fetal bovine serum and penicillin/streptomycin (1:1) was used. Each 80 μL of the NCI-H929 cell having a concentration of 1×10^5 cells/mL (or the KMS-11 cell having a concentration of 7.5×10^4 cells/mL) was inoculated to wells of a TC MICROWELL 96U plate (Nalge Nunc International, Catalog No. 163320) and was cultured in a 5% carbon dioxide gas incubator at 37° C. for 24 hours. Each 20 μL of a solution of the test compound in dimethyl sulfoxide (DMSO) which was prepared to make the final concentration to 1 μmol/L or 10 μmol/L, was added to each well. Each 20 μL of DMSO was added to the control well and the blank well to a final concentration of 0.1%. After adding the test compound, the cells were incubated in a 5% carbon dioxide gas incubator at 37° C. for 72 hours except for the blank well. After adding 20 μL of WST-1 reagent {4-[3-(4-iodophenyl)-2-(4-nitrophenyl)-2H-5-tetrazolio]-1,3-benzene disulfonate sodium salt} (Roche Diagnostics K.K., Catalog No. 1644807), which was diluted to 50% by RPMI medium to each well, the cells were further incubated at 37° C. for 2 hours. Then, the absorbances at 450 nm (reference wavelength: 690 nm) were measured with a microplate spectrophotometer SPECTRA max 340PC (Molecular Devices Corporation). The relative growth (%) of a well to which the test compound had been added and cultured for 72 hours was determined while setting the absorbance of a well to which not the test compound but DMSO alone had been added and cultured for 72 hours (control) as 100% and that of a well where the drugs are added (blank) as 0%. The cytostatic rate (%) of the test compound was determined by subtracting the calculated relative growth from 100.
In general terms: Formazan colour is commonly taken as a measure of viable cells.

For another assay, the system named is KMS-11. Kind of assay: Cytostatic activity on human multiple myeloma cell line KMS-11 (WST-1). It is filed as cell-based. Conditions: Homo sapiens, KMS-11, 72 h, 10 μmol/L, 72 hours; read-out: cytostatic rate (%) KMS-11 (10 μmol/L). As to the method:
as §1, §2

The mark [1] stands for this setting: IGF-1R active recombinant enzyme.
[2] abbreviates: Homo sapiens, NCI-H929, 72 h, 72 hours.

T1 sequence (P08069 959-1367 limits assumed): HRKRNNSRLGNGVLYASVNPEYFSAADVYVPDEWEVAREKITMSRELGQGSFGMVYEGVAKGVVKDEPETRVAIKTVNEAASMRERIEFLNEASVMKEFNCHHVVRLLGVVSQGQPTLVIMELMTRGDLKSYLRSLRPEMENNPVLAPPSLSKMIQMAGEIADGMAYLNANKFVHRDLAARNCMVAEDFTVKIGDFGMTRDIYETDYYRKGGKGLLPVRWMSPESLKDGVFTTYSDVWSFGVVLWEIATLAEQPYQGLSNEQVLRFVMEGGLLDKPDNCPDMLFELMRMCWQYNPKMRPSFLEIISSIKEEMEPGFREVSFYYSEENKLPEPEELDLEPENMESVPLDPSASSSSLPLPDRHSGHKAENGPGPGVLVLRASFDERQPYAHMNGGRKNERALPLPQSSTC

`CN(C(=O)c1ccccc1)c1ccccc1/C=C/c1n[nH]c2ccccc12` [Compound 38, (E)-N-{2-[2-(1H-indazol-3-yl)vinyl]phenyl}-N-methylbenzamide]: the inhibition at 10 µM at IGF-1R (setting [1]) came to 93%; in the assay on NCI-H929 (setting [2]), 65%.
For `O=C(Nc1ccc(C(=O)Nc2ccccc2/C=C/c2n[nH]c3ccccc23)s1)c1cccs1` [Compound 61, (E)-N-{2-[2-(1H-indazol-3-yl)vinyl]phenyl}-5-[(thiophen-2-ylcarbonyl)amino]thiophene-2-carboxamide] the same measures were 94.5% and 124%.
As for `CC(C)C(=O)Nc1ccc(C(=O)Nc2ccccc2/C=C/c2n[nH]c3ccccc23)s1` [Compound 62, (E)-N-{2-[2-(1H-indazol-3-yl)vinyl]phenyl}-5-isobutyrylaminothiophene-2-carboxamide], the figures for the inhibition at 10 µM at IGF-1R (setting [1]) and in the assay with NCI-H929 (setting [2]) were 95.7% and 120%, respectively.
On to `COc1cc(N)c(/C=C/c2n[nH]c3ccccc23)cc1OC` [Compound 92, (E)-2-[2-(1H-indazol-3-yl)vinyl]-4,5-dimethoxyphenylamine], for which the results for the inhibition at 10 µM against IGF-1R and in the assay on NCI-H929 (setting [2]) were 66.5% and 70.1%, respectively.
Take `COC(=O)c1ccc(/C=C/c2n[nH]c3ccccc23)c(NC(=O)c2sccc2C)c1` [Compound 97, (E)-4-[2-(1H-indazol-3-yl)vinyl]-3-[(3-methylthiophen-2-ylcarbonyl)amino]benzoic acid methyl ester]: the inhibition at 10 µM at IGF-1R was found to be 97.1%; in the assay on KMS-11, 100%.
With `Cc1ccsc1C(=O)Nc1cc(C(=O)O)ccc1/C=C/c1n[nH]c2ccccc12` [Compound 98, (E)-4-[2-(1H-indazol-3-yl)vinyl]-3-[(3-methylthiophen-2-ylcarbonyl)amino]benzoic acid], the inhibition at 10 µM against IGF-1R worked out at 98.4%; with NCI-H929 (setting [2]) it was 66.3%.
For the compound `Cc1ccsc1C(=O)Nc1cc(C(=O)N2CCNCC2)ccc1/C=C/c1n[nH]c2ccccc12` [Compound 99, (E)-N-{2-[2-(1H-indazol-3-yl)vinyl]-5-(piperazin-1-ylcarbonyl)phenyl}-3-methylthiophene-2-carboxamide], the inhibition at 10 µM on IGF-1R turned out to be 97.4%; in the assay on KMS-11 it was 118%.
`Cc1ccsc1C(=O)Nc1cc(C(=O)N2CC[C@@H](N)C2)ccc1/C=C/c1n[nH]c2ccccc12` [Compound 102, (E)-(R)—N-{5-(3-aminopyrrolidine-1-ylcarbonyl)-2-[2-(1H-indazol-3-yl)vinyl]phenyl}-3-methylthiophene-2-carboxamide]: the inhibition at 10 µM against IGF-1R turned out to be 97.8%; in the assay on NCI-H929 (setting [2]), 125%.
In the case of `Cc1ccsc1C(=O)Nc1ccc(OCCN2CCOCC2)cc1/C=C/c1n[nH]c2ccccc12` [Compound 103, (E)-N-{2-[2-(1H-indazol-3-yl)vinyl]-4-(2-morpholinoethoxy)phenyl}-3-methylthiophene-2-carboxamide], the inhibition at 10 µM against IGF-1R worked out at 97%; with NCI-H929 (setting [2]) it was 130%.
For `Cn1cccc1C(=O)Nc1ccc(OCCN2CCOCC2)cc1/C=C/c1n[nH]c2ccccc12` [Compound 104, (E)-N-{2-[2-(1H-indazol-3-yl)vinyl]-4-(2-morpholinoethoxy)phenyl}-1-methylpyrrole-2-carboxamide] the same measures were 98.3% and 130%.
As to `Cc1ccsc1C(=O)Nc1cc2c(cc1/C=C/c1n[nH]c3ccccc13)OCO2` [Compound 130, (E)-N-{6-[2-(1H-indazol-3-yl)vinyl]benzo[1,3]dioxol-5-yl}-3-methylthiophene-2-carboxamide], the inhibition at 10 µM stood at 98.3% against IGF-1R and 126% in the assay on NCI-H929 (setting [2]).
The corresponding values for `Cn1cccc1C(=O)Nc1cc2c(cc1/C=C/c1n[nH]c3ccccc13)OCO2` [Compound 131, (E)-N-{6-[2-(1H-indazol-3-yl)vinyl]benzo[1,3]dioxol-5-yl}-1-methylpyrrole-2-carboxamide] are 94.1% and 122%.
As for `CC(=O)N1CCN(c2ccccc2/C=C/c2n[nH]c3ccccc23)CC1` [Compound 133, (E)-4-acetyl-1-{2-[2-(1H-indazol-3-yl)vinyl]phenyl}piperazine], the figures for the inhibition at 10 µM at IGF-1R (setting [1]) and with NCI-H929 (setting [2]) were 70.4% and 62.9%, respectively.
With `OCc1ccn(-c2ccccc2/C=C/c2n[nH]c3ccccc23)c1` [Compound 168, (E)-1-{2-[2-(1H-indazol-3-yl)vinyl]phenyl}-1H-pyrrole-3-methanol], the inhibition at 10 µM was 99% at IGF-1R (setting [1]) and 106% in the assay with NCI-H929 (setting [2]).
As to `O=C(Nc1cc(C(=O)N2CCN(CCO)CC2)ccc1/C=C/c1n[nH]c2ccccc12)c1ccccc1` [Compound 290], at IGF-1R (setting [1]), the “inhibitory activity (%) at 10 μmol/L” value is reported as 95.7%. The “cytostatic rate (%) H929 (1 μmol/L)” value in the assay with NCI-H929 (1 μmol/L, 72 hours) worked out at 93.8%.
`O=C1c2ccccc2C(=O)N1c1cc(N2CCN(CCO)CC2)ccc1/C=C/c1n[nH]c2ccccc12` [Compound 299, (E)-2-{5-[4-(2-hydroxyethyl)piperazin-1-yl]-2-[2-(1H-indazol-3-yl)vinyl]phenyl}isoindole-1,3-dione]: on IGF-1R (setting [1]), the inhibition at 10 µM turned out to be 92.9%.
As to `COC1CCN(C(=O)c2ccc(/C=C/c3n[nH]c4ccccc34)c(N3Cc4c(N)cccc4C3=O)c2)CC1` [Compound 310, (E)-4-amino-2-{2-[2-(1H-indazol-3-yl)vinyl]-5-(4-methoxypiperidin-1-ylcarbonyl)phenyl}-2,3-dihydroisoindole-1-one], the inhibition at 10 µM at IGF-1R (setting [1]) came to 97.9%. For the same compound, the inhibition at 1 µM in the assay on NCI-H929 (Homo sapiens, NCI-H929, 72 h, NCI-H929 cells, test compound 1 μmol/L, WST-1, read-out: cytostatic rate (%) H929 (1 μmol/L)) came out at 105%.
For the compound `Nc1cccc2c1CN(c1cc(CN3CCN(CCCO)CC3)ccc1/C=C/c1n[nH]c3ccccc13)C2=O` [Compound 314, (E)-4-amino-2-{5-[4-(3-hydroxypropyl)piperazin-1-ylmethyl]-2-[2-(1H-indazol-3-yl)vinyl]phenyl}-2,3-dihydroisoindole-1-one], the inhibition at 10 µM at IGF-1R (setting [1]) is 102%.
The same measure, in the same setting: as for `CN1CCN(C(=O)c2ccc(/C=C/c3n[nH]c4ccccc34)c(N3Cc4cccc(N)c4C3=O)c2)CC1` [Compound 316, (E)-7-amino-2-{2-[2-(1H-indazol-3-yl)vinyl]-5-(4-methylpiperazin-1-ylcarbonyl)phenyl}-2,3-dihydroisoindole-1-one], the figure is 103%; as for `Nc1cccc2c1CN(c1cc(C(=O)N3CCOCC3)ccc1/C=C/c1n[nH]c3ccccc13)C2=O` [Compound 324, (E)-4-amino-2-{2-[2-(1H-indazol-3-yl)vinyl]-5-(morpholin-4-ylcarbonyl)phenyl}-2,3-dihydroisoindole-1-one], 102%.
With `Nc1cccc2c1CN(c1cc(CN3CCN(CCO)CC3)ccc1/C=C/c1n[nH]c3ccccc13)C2=O` [Compound 345, (E)-4-amino-2-{5-[4-(2-hydroxyethyl)piperazin-1-ylmethyl]-2-[2-(1H-indazol-3-yl)vinyl]phenyl}-2,3-dihydroisoindole-1-one], on IGF-1R (setting [1]), the inhibition at 10 µM amounted to 105%.
As to `Cc1c(C(=O)Nc2ccccc2/C=C/c2n[nH]c3ccccc23)sc2ccccc12` [Compound 351, (E)-{2-[2-(1H-indazol-3-yl)vinyl]phenyl}-3-methylbenzo[b]thiophene-2-carboxamide], the “inhibitory activity (%) at 10 μmol/L” value at IGF-1R (setting [1]) is given as 99.1%.
Take `CS(=O)(=O)c1ccc(C(=O)Nc2ccccc2/C=C/c2n[nH]c3ccccc23)s1` [Compound 354, (E)-N-{2-[2-(1H-indazol-3-yl)vinyl]phenyl}-5-(methylsulfonyl)thiophene-2-carboxamide]: the inhibition at 10 µM on IGF-1R (setting [1]) stood at 97.1%.
